The values below come from patent US11300509B2, “Cleavable linkers for protein translation reporting” (9412-1126 Québec inc., priority 2020, dated 2022).

No end group written: not given here.

Test [1] has as its target T1, Cherry1-10 (Discosoma sp., UniProt Q9U6Y8, A164R/C117E/F124L/F177V/H162N/H41T/I125L/I180T/K163Q/K83L/K92T/L150M/L174D/M182K/N42Q/Q66M/R153E/R17H/R36H/S179T/S197I/T21S/V127T/V156A/V175A/V44A/V71A/Y192A/Y194N).
T1 construct: made in house; host or cells: Escherichia coli BL21(DE3)
The test is described as follows: In vitro reconstitution of split Cherry: Cherry11 peptide mixed with Cherry1-10. In kind it is binding. The protocol: Fluorescence output was recorded every 0.1 seconds for a duration of 30 seconds.
In vitro fluorescence complementation was performed by mixing purified XFP1-10 protein and chemically synthesized XFP11 peptides and the fluorescence intensity of the reaction was collected with a StepOnePlus real-time thermal cycler (Thermo-Fisher). […] XFP1-10 in TNG buffer or PBS (varied pH) was added to wells of a 96-well microplate coated with 1 mM bovine serum albumin and allowed to equilibrate for 60 seconds. XFP11 peptide was added according to different final peptide concentrations and the microplate was immediately loaded into the fluorescence reader. The fluorescence intensity was measured every 10 seconds for 45 minutes at 32° C. or 37° C. with 495 nm excitation and 520 nm emission. The fluorescence intensity was normalized to the initial fluorescence intensity to express relative fluorescence increase upon fluorescence reconstitution. […] Standard curves for XFP fluorescence measurements were generated by either using reconstituted XFP or XFP purified from E. coli using GFP specific chromatography columns (Bio-Rad). XFP protein concentration was determined using the Bradford assay and absorbance readings at 280 nm with a NanoDrop 2000 (Thermo-Fisher). Samples were serially diluted (1:10 or 1:5) and 10 μL samples were imaged to reduce any non-linear fluorescence excitation effects. […]

The target of test [2] is T2, GFP1-10 (Aequorea victoria, UniProt P42212, A206V/E111V/F64L/F99S/I128T/I167V/I171V/K166T/M153T/N105K/Q80R/S205T/S30R/S65T/V163A/Y145F/Y39I).
T2 construct: Residues 1-213 of GFP, corresponding to the first 10 beta strands of GFP (GFP1-10); made in house; host or cells: Escherichia coli BL21(DE3)
Briefly: In vitro reconstitution (fluorescence complementation) of split GFP: GFP11 peptide mixed with purified GFP1-10. In kind it is binding. More on the design: half time of reconstitution: dose or concentration left out as unconfirmed. The settings on record: for observed rate constant (kobs) of GFP11 peptide binding: pseudo-first order. How it is done: FIGS. 1F-G, relating to the stoichiometric production of GFP11 reporter as a function of time using a PTR linker to allow instantaneous detection of protein translation, are graphs that illustrate that reconstitution of split GFP as a function of seconds passed. […] Within the first second of reconstitution, i.e., in milliseconds, fluorescence emission begins (FIG. 1F), and the fluorescence intensity of the reaction rose logarithmically and began to saturate after 5 minutes (FIG. 1G). […] To obtain kinetic measurements of the reconstitution reaction at sub-second timescales, an ultrasensitive fluorescence spectrophotometer was used. A stopped-flow dispenser was used to mix and deliver known volumes of GFP1-10 and GFP11 proteins. This allowed the establishment of a to for the moment split GFP components first interact. […] Fluorescence increase over time from the bimolecular reaction was modeled as pseudo-first order and fit to a one phase association curve to determine the observed rate constant (kobs) of GFP11 peptide binding for each concentration of GFP11 tested. For 50 nM GFP11 and excess GFP1-10, the kobs is 0.003 s-1.
In the volume of a medium-size cell, the slower, lowest concentration reactions would generate tens of reconstituted molecules per second, and for the average protein synthesis hundreds per second. […].
In vitro fluorescence complementation was performed by mixing purified XFP1-10 protein and chemically synthesized XFP11 peptides and the fluorescence intensity of the reaction was collected with a StepOnePlus real-time thermal cycler (Thermo-Fisher). […] XFP11 peptide was added according to different final peptide concentrations and the microplate was immediately loaded into the fluorescence reader. The fluorescence intensity was measured every 10 seconds for 45 minutes at 32° C. or 37° C. with 495 nm excitation and 520 nm emission. The fluorescence intensity was normalized to the initial fluorescence intensity to express relative fluorescence increase upon fluorescence reconstitution. […] Standard curves for XFP fluorescence measurements were generated by either using reconstituted XFP or XFP purified from E. coli using GFP specific chromatography columns (Bio-Rad). XFP protein concentration was determined using the Bradford assay and absorbance readings at 280 nm with a NanoDrop 2000 (Thermo-Fisher). Samples were serially diluted (1:10 or 1:5) and 10 μL samples were imaged to reduce any non-linear fluorescence excitation effects. […] Total fluorescence intensity (in photon counts) was collected every 0.1 s or 0.01 s for varying durations.
Pearson's linear correlations were calculated by fitting the data to a simple linear regression model, with the coefficient of determination, R2. […]

Consider “Cherry11: small fragment of split mCherry red fluorescent protein; purified peptide that reconstitutes with Cherry1-10 (MGGGGSGGGGSYTIVEQYERAEGRHSTGG)”, for which the “onset of reconstitution upon addition of peptide” value in test [1] (Cherry1-10 and Cherry11 in vitro, FIG. 3E) was “immediately”. For the same substance, in test [1] (compared with split GFP and split Dendra2), the “fluorescence signal strength of reconstitution” value was “overall weaker signal compared to split GFP and split Dendra2”.
For the substance RDHMVLHEYVNAAGIT [GFP11], the “observed rate constant (kobs) of GFP11 peptide binding” value stood at 0.003 s⁻¹ in test [2] (50 nM GFP11 and excess GFP1-10, one phase association fit); 0.007 ± 0.0001 s⁻¹ in test [2] (one phase association fit, FIG. 1G, R2=0.99). Moreover, in test [2] (one phase association fit, FIG. 1G), the “half time of reconstitution” value was found to be 95 s. In test [2] (stopped-flow mixing of GFP1-10 and GFP11), the “time to detection of green fluorescence upon mixing” value is reported as no more than 100 ms.
